Reference: patent US11840686B2, “Modulation of prekallikrein (PKK) expression” (Ionis Pharmaceuticals, Inc., priority 2013, dated 2023)
Strand notation (5' to 3'): a small letter for the sugar, then the base; units joined by * are phosphorothioate-linked, units joined directly phosphodiester-linked; [ ] holds rarer units or linkages, { } end groups; capitals alone tell only the bases. e = 2'-O-(2-methoxyethyl) (MOE); [5mC] = 5-methylcytosine; d = 2'-deoxy (DNA)

Key:
[1] = Kidney function: plasma BUN and creatinine in cynomolgus monkeys (Example 8)
Protocol: (§1) Prior to the study, the monkeys were kept in quarantine for a 30-day period, during which the animals were observed daily for general health. The monkeys were 2-4 years old and weighed between 2 and 4 kg. Ten groups of four randomly assigned male cynomolgus monkeys each were injected subcutaneously with ISIS oligonucleotide or PBS. PBS solution or ISIS oligonucleotides at a dose of 40 mg/kg were administered initially with a loading regimen consisting of four doses on the first week of the study (days 1, 3, 5, and 7), followed by a maintenance regimen consisting of once weekly administration starting on Day 14 (weeks 2 to 13). Subcutaneous injections were performed in clock-wise rotations at 4 sites on the back; one site per dose. The injection sites were delineated by tattoo, while sedated using ketamine, and were separated by a minimum of 3 cm.
To evaluate the effect of ISIS oligonucleotides on kidney function, the monkeys were fasted overnight. Approximately, 1.5 mL of blood samples were collected from all the study groups. Blood was collected in tubes without anticoagulant for serum separation. The tubes were kept at room temperature for a minimum of 90 min and then centrifuged at 3,000 rpm for 10 min. Levels of BUN and creatinine were measured using a Toshiba 120FR NEO chemistry analyzer (Toshiba Co., Japan).

[2] = Hematological parameters in cynomolgus monkeys (Example 8); conditions: cynomolgus monkey, 40 mg/kg sc, day 87 or day 88
Protocol: as §1
To evaluate any effect of ISIS oligonucleotides in cynomolgus monkeys on hematologic parameters, blood samples of approximately 1.2 mL of blood was collected pre-dose and on day 87 or day 88 from each of the available study animals in tubes containing K2-EDTA. Samples were analyzed for red blood cell (RBC) count, white blood cells (WBC) count, platelet count, hemoglobin content and hematocrit, using an ADVIA2120i hematology analyzer (SIEMENS, USA).

[3] = system: thrombus formation (platelet factor-4 mRNA); assay: FeCl3-induced inferior vena cava thrombosis model, PF-4 quantification (Example 19); assay type: in vivo, mouse; conditions: BALB/c mice; for PF-4 (percentage compared to PBS controls): FeCl3 vena cava
Protocol: Three groups of 8 male BALB/c mice were treated with 10 mg/kg, 20 mg/kg, or 40 mg/kg of ISIS 482584, administered subcutaneously twice a week for 3 weeks (weekly doses of 20 mg/kg, 40 mg/kg, or 80 mg/kg). Two control groups of 12 BALB/c mice each were treated with PBS, administered subcutaneously twice a week for 3 weeks. Two days after the last dose of antisense oligonucleotide or PBS, mice from all groups were anesthetized with 150 mg/kg ketamine mixed with 10 mg/kg xylazine, administered by intraperitoneal injection. Thrombus formation was induced with FeCl3 in all groups of anesthetized mice except the first control group.
In mice undergoing FeCl3 treatment, thrombus formation was induced by applying a piece of filter paper (2×4 mm) pre-saturated with 10% FeCl3 solution directly on the vena cava. After 3 minutes of exposure, the filter paper was removed. Thirty minutes after the filter paper application, a fixed length of the vein containing the thrombus was dissected out for platelet analysis. Liver was collected for RNA analysis.
Real-time PCR quantification of platelet factor-4 (PF-4) was used to quantify platelets in the vena cava as a measure of thrombus formation. PF-4 mRNA levels were measured using the murine primer probe set mPF4_LTS_00086 (forward sequence […], designated herein as SEQ ID NO: 2240; reverse sequence CGCAGCGACGCTCATG, designated herein as SEQ ID NO: 2241; probe sequence […], designated herein as SEQ ID NO: 2242). Results are presented as a percentage of PF-4 in ISIS oligonucleotide-treated mice, as compared to the two PBS-treated control groups. […] Therefore, reduction of PKK by the compound provided herein is useful for inhibiting thrombus formation.

murine PKK mRNA = assay: PKK mRNA in BALB/c mice liver (Example 10); assay type: in vivo, mouse; conditions: for % inhibition of PKK mRNA in BALB/c mice liver: twice a week for 3 weeks, relative to PBS control
Protocol: ISIS 482584 was tested for its effect on murine PKK mRNA in vivo.
Six groups of male BALB/c mice each were treated with 2.5 mg/kg, 5.0 mg/kg, 10.0 mg/kg, 20.0 mg/kg, 40.0 mg/kg, or 80.0 mg/kg of ISIS 482584, administered subcutaneously twice a week for 3 weeks (weekly doses of 5.0 mg/kg, 10.0 mg/kg, 20.0 mg/kg, 40.0 mg/kg, 80.0 mg/kg, or 160.0 mg/kg). A control group of BALB/c mice was treated with PBS, administered subcutaneously twice a week for 3 weeks. Two days after the last dose of antisense oligonucleotide or PBS, mice from all groups were anesthetized with 150 mg/kg ketamine mixed with 10 mg/kg xylazine, administered by intraperitoneal injection. Liver was collected for RNA analysis.
RNA was extracted from liver tissue for real-time PCR analysis of PKK. PKK mRNA levels were measured using the murine primer probe set (forward sequence […], designated herein as SEQ ID NO: 2231; reverse sequence […], designated herein as SEQ ID NO: 2232; probe sequence […], designated herein as SEQ ID NO: 2233). Results are presented as percent inhibition of PKK, relative to PBS control.

Factor 12 = Factor 12 activation in mouse plasma, Spectrozyme FXIIa amidolytic assay (Example 17); assay type: in vivo; conditions: for % F12 activation compared to the PBS control: 3 weeks, mouse plasma
Protocol: The effect of antisense inhibition of PKK mRNA on Factor 12 protein activation was evaluated.
Group 1 consisted of 8 mice and was treated with PBS administered subcutaneously twice a week for 3 weeks. No other treatment was administered to Group 1 which served as a control group to measure Factor 12 activation.
Groups 2, 3, 4, 5, and 6 consisted of 8 mice each and were treated with 2.5 mg/kg, 5 mg/kg, 10 mg/kg, 20 mg/kg, or 40 mg/kg (corresponding to 5 mg/kg, 10 mg/kg, 20 mg/kg, 40 mg/kg, or 80 mg/kg per week), respectively of ISIS 482584 administered subcutaneously twice a week for 3 weeks. Groups 2-6 served as the treatment groups for measuring the effect of ISIS 482584 on Factor 12 activation.
At the end of the treatment period, plasma was harvested from the mice for the Spectrozyme® Factor 12a based amidolytic assay for Factor 12 in plasma.
Plasma (5 μL) was added to 85 μL of PBS with 1 μg/ml dextran sulfate (500 kDa) in a 96 well polypropelene microplate and the solution was incubated for 5 minutes at room temperature. Spectrozyme® FXIIa (10 μL of a 2 mM solution) and 0.2 mM KALLISTOP™ solution was added and the absorbance kinetic was measured at 405 nm. Factor 12 activation was measured in the linear phase of absorbance accumulation. The results are presented in Table 78 as a percentage of Factor 12 activation measured in the PBS control sample.

Substance: Tes Ges mCes Aes Aes Gds Tds mCds Tds mCds Tds Tds Gds Gds mCds Aes Aes Aes mCes Ae [ISIS 546254]
- Plasma BUN ([1]; 40 mg/kg s.c.): 25.7 mg/dL
- Plasma Creatinine ([1]; 40 mg/kg s.c.): 0.9 mg/dL
- effect on kidney function ([1]; plasma chemistry): well tolerated in terms of the kidney function
- HCT [2]: 41%
- Hemoglobin [2]: 12.4 g/dL
- Platelets [2]: 436000 µL⁻¹
- RBC [2]: 5.3e+06 µL⁻¹
- WBC [2]: 11000 µL⁻¹

Substance: ISIS 482584: 5-10-5 MOE gapmer targeting murine PKK, GGCATATTGGTTTTTGGAAT; SEQ ID NO: 2244 (antisense eG*eG*e[5mC]*eA*eT*dA*dT*dT*dG*dG*dT*dT*dT*dT*dT*eG*eG*eA*eA*eT)
- PF-4 (percentage compared to PBS controls) ([3]; 20 mg/kg/wk sc 3 weeks): 62%
- PF-4 (percentage compared to PBS controls) ([3]; 40 mg/kg/wk sc 3 weeks): 34%
- PF-4 (percentage compared to PBS controls) ([3]; 80 mg/kg/wk sc 3 weeks): 25%
- PF-4 in vena cava ([3]; 10-40 mg/kg s.c. twice a week for 3 weeks, vs PBS control): significant reduction of PF-4
- % inhibition of PKK mRNA in BALB/c mice liver (murine PKK mRNA; 5 mg/kg/wk sc): 3%
- % inhibition of PKK mRNA in BALB/c mice liver (murine PKK mRNA; 10 mg/kg/wk sc): 42%
- % inhibition of PKK mRNA in BALB/c mice liver (murine PKK mRNA; 20 mg/kg/wk sc): 68%
- % inhibition of PKK mRNA in BALB/c mice liver (murine PKK mRNA; 40 mg/kg/wk sc): 85%
- % inhibition of PKK mRNA in BALB/c mice liver (murine PKK mRNA; 80 mg/kg/wk sc): 91%
- % inhibition of PKK mRNA in BALB/c mice liver (murine PKK mRNA; 160 mg/kg/wk sc): 94%
- reduction of PKK mRNA in liver (murine PKK mRNA; BALB/c mice, 2.5-80.0 mg/kg s.c. twice a week for 3 weeks, vs PBS): significant dose-dependent reduction of PKK mRNA
- % F12 activation compared to the PBS control (Factor 12; 5 mg/kg/wk sc): 82%
- % F12 activation compared to the PBS control (Factor 12; 10 mg/kg/wk sc): 63%
- % F12 activation compared to the PBS control (Factor 12; 20 mg/kg/wk sc): 47%
- % F12 activation compared to the PBS control (Factor 12; 40 mg/kg/wk sc): 24%
- % F12 activation compared to the PBS control (Factor 12; 80 mg/kg/wk sc): 14%
- activation of Factor 12 (Factor 12; mouse plasma after 3 weeks s.c. treatment): decreased activation of Factor 12
